In patent publication US20260069584A1, “METHODS OF TREATING CHRONIC MYELOID LEUKEMIA USING THE TYROSINE KINASE INHIBITOR VODOBATINIB” (Sun Pharma Advanced Research Company Ltd., priority 2022, published 2026):

Columns and labels:
[1] = system: AP CML, BP CML and Ph+ ALL; experiment: Part B: disease response in AP CML, BP CML and Ph+ ALL subjects; format: in vivo, human
Text: This was a Phase I/2, open-label, single-agent, multicenter, multi-dose, dose-escalation study in subjects with Philadelphia chromosome-positive Ph+ CML (CP CML, AP CML and BP CML) and Ph+ ALL. The primary objectives of this study were to determine the maximum tolerated dose (MTD; or recommended Phase 2 dose [RP2D]) of the compound of Formula I when administered orally and to evaluate its safety.
In this study, the dose-escalation cohort started with an accelerated titration study design (ATD) and shifted to a 3±3 design when subjects in the preceding ATD cohort experienced either grade 2 or higher adverse events (AEs) or dose-limiting toxicity (DLT) during Cycle 1 that was not clearly and incontrovertibly related to the underlying disease or concomitant medications. The DLT period consisted of 28 days (Cycle 1). Subjects experiencing DLTs were managed with dose delays and/or discontinuation and continued in the study until disease progression. Decisions to advance to a succeeding dose level occurred after the evaluation of safety and tolerability data for a given dose level.
Accordingly, the eligible subjects were treated in 4-week cycles of once daily self-administration of the compound of Formula I. The administration was after an overnight fast, or after maintaining approximately 2 hours of fasting before and after the dosing in all cycles.
For the cohorts, where the 3±3 design applies, 3 subjects were enrolled initially. If 2 of these subjects experienced a Grade 2 or more toxicity (that was not clearly and incontrovertibly related to the underlying disease or concomitant medications), subsequent cohorts were escalated according to smaller increments. Further, if there were no DLTs in the first 3 subjects, dose escalation to the next higher dose level was allowed to proceed. If 1 of the 3 subjects experienced a DLT, that dose level was expanded to 6 subjects (3 additional subjects were enrolled). If 2 subjects at a given dose level experienced a DLT, the MTD was considered to have been exceeded. The next lower dose level was expanded to 6 subjects, or if 6 subjects had already been enrolled and no more than 1 of the 6 subjects experienced a DLT, then this lower dose level was considered the MTD. Additional subjects were enrolled in dose escalation cohorts for further assessment of safety and efficacy of the compound of Formula 1 at doses that were tolerated (i.e., doses that have <2 DLTs in 6 enrolled subjects or <1 DLT in 3 enrolled subjects). Thus 204 mg was arrived at as MTD. A subject experiencing a DLT was allowed to continue therapy with a reduced dose. Subjects who experienced a DLT and recovered were treated at the next lower dose level until disease progression or other events requiring further dose reduction existed. For cohorts at Dose Level 2 or higher, a further dose reduction (i.e., up to 2 levels lower than their originally assigned dose) was implemented in the case of a further DLT or other non-DLT events requiring a dose reduction, if and when the event leading to dose reduction returned to Grade 1 or lower in severity. The reduced dose was re-escalated to the original or higher dose (i.e., the dose for which safety had been established in the dose escalation cohort) considering subject safety and response to the compound of Formula I. The subject was discontinued from treatment using the compound of Formula I, if dose reduction below 48 mg was required.
The study was conducted over a period of 60 months (5 years) which was divided in 28-days cycle. In the first two cycles, the dose administration was started on day 1 and the subject's assessments were performed on day 1, day 2, day 3, day 8, day 15 and day 22. From Cycle 3 onwards, the assessments were performed every 3 months (i.e., on day 28 of Cycle 3, followed by day 28 of Cycle 6 which was further followed by day 28 of Cycle 9). […]

[2] = target: ABL1 kinase and its mutant forms; experiment: In-vitro ABL1 kinase inhibition; format: biochemical
clinical = conditions: human, in vivo, po
Experimental: A±5 minutes window permitted till 4 hours PK sample collection. A±10 minutes window permitted for subsequent PK sample collection. Days 3, 8, 15, and 22 of Cycle 1:30 (±10) minutes Predose only. […] A #5 minutes window permitted till 4 hours PK sample collection. A #10 minutes window permitted for subsequent PK sample collection. Days 8, 15, and 22 of Cycle 2:30 (±10) minutes Predose only. Cycle 3 onwards: Predose samples on Day 1.
Pharmacokinetic analysis was performed using non-compartmental analysis. The actual elapsed time from dose was used in the final PK parameter calculations. Plasma concentrations and PK parameters for the compound of Formula I were listed and summarized by dose cohort using descriptive statistics (n, mean, standard deviation, minimum, median, and maximum). Geometric mean and geometric coefficient of variation were calculated for PK parameters. Additionally, mean concentration profiles by dose cohort and cycle were illustrated. Dose proportionality of Cmax and AUC(0-24) was assessed graphically for Cycle 1 and Cycle 2. Dose proportionality was statistically evaluated using the power model approach, whenever the number of patients was at least 3 for a given cohort. Time to steady-state (Ctrough) was evaluated graphically. Differences among dose levels in CL/F and V/F, and dose-normalized Cmax and AUC(0-24) were explored using an analysis of variance.
The PK parameters for the study were summarized by treatment using descriptive (N, n, mean, standard deviation [SD], coefficient of variation [CV] % minimum, median, maximum, geometric mean and CV %) statistics, except for Tmax. For Tmax, the number of subjects, minimum, median, and maximum are reported.

With `Cc1ccc(C(=O)NNC(=O)c2c(C)cccc2Cl)cc1C#Cc1cnc2ccccc2c1` [compound of Formula I, N′-(2-chloro-6-methylbenzoyl)-4-methyl-3-[2-(3-quinolyl)ethynyl]-benzohydrazide] the “Best Cytogenetic Response: Complete Response” value ([1]; 24 mg (N = 1) ESC) was 1(100), the “Best Cytogenetic Response: Major Cytogenetic Response” value ([1]; 24 mg (N = 1) ESC) was 1(100) and the “Best Cytogenetic Response: Minimal Response” value ([1]; 24 mg (N = 1) ESC) was 0. The “Best Cytogenetic Response: Minor Response” value ([1]; 24 mg (N = 1) ESC) was 0, the “Best Cytogenetic Response: No Response” value ([1]; 24 mg (N = 1) ESC) was 0 and the “Best Cytogenetic Response: Partial Response” value ([1]; 24 mg (N = 1) ESC) was 0. For the same compound, the “Best Hematologic Response: Complete Response” value ([1]; 24 mg (N = 1) ESC) was 1(100), the “Best Hematologic Response: Major Hematologic Response” value ([1]; 24 mg (N = 1) ESC) was 1(100) and the “Best Hematologic Response: No Evidence of Leukemia” value ([1]; 24 mg (N = 1) ESC) was 0. The “Best Hematologic Response: No Response” value ([1]; 24 mg (N = 1) ESC) was 0, the “Best Molecular Response: Complete Response” value ([1]; 24 mg (N = 1) ESC) was 0 and the “Best Molecular Response: Major Response” value ([1]; 24 mg (N = 1) ESC) was 1(100). For the same compound, the “Best Molecular Response: No Response” value ([1]; 24 mg (N = 1) ESC) was 0, the “Best Cytogenetic Response: Complete Response” value ([1]; 48 mg (N = 3) ESC) was 2(66.7) and the “Best Cytogenetic Response: Major Cytogenetic Response” value ([1]; 48 mg (N = 3) ESC) was 2(66.7). For the same compound, the “Best Cytogenetic Response: Minimal Response” value ([1]; 48 mg (N = 3) ESC) was 0, the “Best Cytogenetic Response: Minor Response” value ([1]; 48 mg (N = 3) ESC) was 0 and the “Best Cytogenetic Response: No Response” value ([1]; 48 mg (N = 3) ESC) was 1(33.3). For the same compound, the “Best Cytogenetic Response: Partial Response” value ([1]; 48 mg (N = 3) ESC) was 0, the “Best Hematologic Response: Complete Response” value ([1]; 48 mg (N = 3) ESC) was 3(100) and the “Best Hematologic Response: Major Hematologic Response” value ([1]; 48 mg (N = 3) ESC) was 3(100). The “Best Hematologic Response: No Evidence of Leukemia” value ([1]; 48 mg (N = 3) ESC) was 0, the “Best Hematologic Response: No Response” value ([1]; 48 mg (N = 3) ESC) was 0 and the “Best Molecular Response: Complete Response” value ([1]; 48 mg (N = 3) ESC) was 1(33.3). The “Best Molecular Response: Major Response” value ([1]; 48 mg (N = 3) ESC) was 1(33.3), the “Best Molecular Response: No Response” value ([1]; 48 mg (N = 3) ESC) was 2(66.7) and the “Best Cytogenetic Response: Complete Response” value ([1]; 90 mg (N = 1) ESC) was 1(100). The “Best Cytogenetic Response: Major Cytogenetic Response” value ([1]; 90 mg (N = 1) ESC) was 1(100), the “Best Cytogenetic Response: Minimal Response” value ([1]; 90 mg (N = 1) ESC) was 0 and the “Best Cytogenetic Response: Minor Response” value ([1]; 90 mg (N = 1) ESC) was 0. The “Best Cytogenetic Response: No Response” value ([1]; 90 mg (N = 1) ESC) was 0, the “Best Cytogenetic Response: Partial Response” value ([1]; 90 mg (N = 1) ESC) was 0 and the “Best Hematologic Response: Complete Response” value ([1]; 90 mg (N = 1) ESC) was 1(100). For the same compound, the “Best Hematologic Response: Major Hematologic Response” value ([1]; 90 mg (N = 1) ESC) was 1(100), the “Best Hematologic Response: No Evidence of Leukemia” value ([1]; 90 mg (N = 1) ESC) was 0 and the “Best Hematologic Response: No Response” value ([1]; 90 mg (N = 1) ESC) was 0. For the same compound, the “Best Molecular Response: Complete Response” value ([1]; 90 mg (N = 1) ESC) was 1(100), the “Best Molecular Response: Major Response” value ([1]; 90 mg (N = 1) ESC) was 1(100) and the “Best Molecular Response: No Response” value ([1]; 90 mg (N = 1) ESC) was 0. For the same compound, the “Best Cytogenetic Response: Complete Response” value ([1]; 126 mg (N = 3) ESC) was 0, the “Best Cytogenetic Response: Major Cytogenetic Response” value ([1]; 126 mg (N = 3) ESC) was 0 and the “Best Cytogenetic Response: Minimal Response” value ([1]; 126 mg (N = 3) ESC) was 0. The “Best Cytogenetic Response: Minor Response” value ([1]; 126 mg (N = 3) ESC) was 1(33.3), the “Best Cytogenetic Response: No Response” value ([1]; 126 mg (N = 3) ESC) was 1(33.3) and the “Best Cytogenetic Response: Partial Response” value ([1]; 126 mg (N = 3) ESC) was 0. For the same compound, the “Best Hematologic Response: Complete Response” value ([1]; 126 mg (N = 3) ESC) was 0, the “Best Hematologic Response: Major Hematologic Response” value ([1]; 126 mg (N = 3) ESC) was 0 and the “Best Hematologic Response: No Evidence of Leukemia” value ([1]; 126 mg (N = 3) ESC) was 0. The “Best Hematologic Response: No Response” value ([1]; 126 mg (N = 3) ESC) was 1(33.3), the “Best Molecular Response: Complete Response” value ([1]; 126 mg (N = 3) ESC) was 0 and the “Best Molecular Response: Major Response” value ([1]; 126 mg (N = 3) ESC) was 0. For the same compound, the “Best Molecular Response: No Response” value ([1]; 126 mg (N = 3) ESC) was 2(66.7), the “maintained CCyR and MMR” value ([1]; 2 Ph+ ALL pts) was 1 pt and the “CCyR with MMR” value ([1]; 3 AP CML patients) was 1 patient. The PCyR ([1]; 3 AP CML patients) was 2 patients, the “complete hematological response (CHR)” value ([1]; 4 BP CML patients) was 2 patients and the “disease progression as best response” value ([1]; 4 BP CML patients) was 2 patients. For the same compound, the “Best Cytogenetic Response: Complete Response” value ([1]; 66 ang (N = 3) ESC) was 2(66.7), the “Best Cytogenetic Response: Minor Response” value ([1]; 66 ang (N = 3) ESC) was 0 and the “Best Cytogenetic Response: No Response” value ([1]; 66 ang (N = 3) ESC) was 0. The “Best Hematologic Response: Complete Response” value ([1]; 66 ang (N = 3) ESC) was 0, the “Best Hematologic Response: Major Hematologic Response” value ([1]; 66 ang (N = 3) ESC) was 2(66.7) and the “Best Hematologic Response: No Response” value ([1]; 66 ang (N = 3) ESC) was 1(33.3). The “Best Molecular Response: Major Response” value ([1]; 66 ang (N = 3) ESC) was 1(33.3), the “Best Molecular Response: No Response” value ([1]; 66 ang (N = 3) ESC) was 2(66.7) and the “Best Cytogenetic Response: Major Cytogenetic Response” value ([1]; (N = 3) ESC) was 3(100). For the same compound, the “Best Cytogenetic Response: Minimal Response” value ([1]; (N = 3) ESC) was 0, the “Best Cytogenetic Response: Partial Response” value ([1]; (N = 3) ESC) was 1(33.3) and the “Best Hematologic Response: No Evidence of Leukemia” value ([1]; (N = 3) ESC) was 2(66.7). The “Best Molecular Response: Complete Response” value ([1]; (N = 3) ESC) was 1(33.3), the “Best Cytogenetic Response: Complete Response” value ([1]; Total ESC) was 6(54.5) and the “Best Cytogenetic Response: Major Cytogenetic Response” value ([1]; Total ESC) was 7(63.6). For the same compound, the “Best Cytogenetic Response: Minimal Response” value ([1]; Total ESC) was 0, the “Best Cytogenetic Response: Minor Response” value ([1]; Total ESC) was 1(9.1) and the “Best Cytogenetic Response: No Response” value ([1]; Total ESC) was 2(18.2). For the same compound, the “Best Cytogenetic Response: Partial Response” value ([1]; Total ESC) was 1(9.1), the “Best Hematologic Response: Complete Response” value ([1]; Total ESC) was 5(45.5) and the “Best Hematologic Response: Major Hematologic Response” value ([1]; Total ESC) was 7(63.6). For the same compound, the “Best Hematologic Response: No Evidence of Leukemia” value ([1]; Total ESC) was 2(18.2), the “Best Hematologic Response: No Response” value ([1]; Total ESC) was 2(18.2) and the “Best Molecular Response: Complete Response” value ([1]; Total ESC) was 3(27.3). For the same compound, the “Best Molecular Response: Major Response” value ([1]; Total ESC) was 4(36.4), the “Best Molecular Response: No Response” value ([1]; Total ESC) was 6(54.5) and the IC50 [2] was “nanomolar”. For the same compound, the Tmax (clinical) was 1.5 to 2.5 h, the AUC(0-t) (clinical; 204 mg) was 27500 ng·h/mL and the Cmax (clinical; 204 mg) was 3310 ng/mL.
